Tests used:
KRAS G12D = KRAS G12D (Homo sapiens, UniProt P01116, G12D); experiment: SOS-catalyzed nucleotide exchange assay, KRAS G12D (Procedure A); type: biochemical; conditions: guanine nucleotide exchange (GNE)
Method in brief: (§1)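 60 min cpd preinc. w/ RAS–Bodipy-GDP–Tb-SA complex; + hSOS/GTP (3 mM final), RT. G12C 3 nM RAS/40 nM SOS; WT, G12D 1 nM/40 nM; 60 min rxn. G13D 1.25 nM, no SOS, 30 min rxn. HEPES pH 7.5, 10 mM MgCl2. Ratio 520/495, norm. to DMSO/max-inhibitor ctrls.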

KRAS WT = KRAS WT (Homo sapiens, UniProt P01116); experiment: SOS-catalyzed nucleotide exchange assay, KRAS WT (Procedure A); type: biochemical; conditions: GNE
Method in brief: as §1

KRAS G12V = KRAS G12V (Homo sapiens, UniProt P01116, G12V); experiment: SOS-catalyzed nucleotide exchange assay, KRAS G12V (Procedure A); type: biochemical; conditions: GNE
Method in brief: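 Biotinylated KRAS G12V was loaded with Bodipy-GDP alongside Terbium-streptavidin to form a TR-FRET complex, which was preincubated with compounds for 60 minutes in 384-well plates. Human SOS protein and unlabeled GTP were then added for 90 minutes, giving final concentrations of 1.25 nM KRAS-G12V, 160 nM SOS and 3 mM GTP. The 520/495 nm emission ratio was read on an Envision.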

KRAS G12C = KRAS G12C (Homo sapiens, UniProt P01116, C118S/C51S/C80L/G12C); experiment: SOS-catalyzed nucleotide exchange assay, KRAS G12C (Procedure A); type: biochemical; conditions: GNE
Method in brief: as §1

AsPC-1 cells = biological target: T1, AsPC-1 cells (Homo sapiens, UniProt P01116, G12D); experiment: Cellular phospho-ERK assay, AsPC-1 cells (KRAS G12D); type: cell-based; conditions: 2 hours, read-out: AsPC1 pERK IC50
T1 construct: p-ERK/total ERK AlphaSureFire read-out
Method in brief: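 Compound was titrated 10-point in 3-fold steps (top 30 μM) on KRAS G12D homozygous pancreatic lines PANC08.13 and AsPC-1 for 2 h at 37 °C. The p-ERK/total ERK ratio was measured by multiplex AlphaLISA SureFire and fitted with a 4-parameter logistic model to give IC50.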

NRAS = NRAS (Homo sapiens, UniProt P01111); experiment: SOS-catalyzed nucleotide exchange assay, NRAS (Procedure A); type: biochemical; conditions: GNE
Method in brief: as §1

PANC08.13 cells = biological target: T2, PANC08.13 cells (Homo sapiens, UniProt P01116, G12D); experiment: Cellular phospho-ERK assay, PANC08.13 cells (KRAS G12D); type: cell-based; conditions: 2 hours, read-out: PANCO 813 pERK IC50
T2 construct: p-ERK/total ERK AlphaSureFire read-out
Experimental: Procedure for Cellular Phospho-ERK Assay in KRAS Wild Type and Mutant (G12D, G12V) Cell Lines
PANC08.13 cells (ATCC® CRL-2551™), containing homozygous KRAS-G12D activating mutation, were cultured in growth medium made of RPMI1640-GlutaMAX™-I (ThermoFisher Scientific 61870) containing 15% heat inactivated fetal bovine serum (ThermoFisher Scientific 10091148)). AsPC-1 cells (ATCC® CRL-1682™), containing homozygous KRAS-G12D activating mutation, were cultured in T150 flask in growth medium (RPMI medium 1640-GlutaMAX™-I (ThermoFisher Scientific 61870) containing 10% fetal bovine serum (ThermoFisher Scientific 10091148)).
Cells for the assay were harvested in growth medium after TrypLE (ThermoFisher scientific 12604021) digestion and were seeded in a 384-well collagen coated cell culture plate (Corning 356702) at a density of 10,000-15,000 cells/20 μL/well, and incubated at 37° C., 5% CO2 overnight. The compound (with 10 mM stock concentration) dose-response titrations were prepared [30 μM final ERK detection assay concentration and 1:3 dilutions, 10-point dose response] and appropriate amounts (270 nL) of test compounds were dispensed in a 384-well intermediate plate using an Echo 550 liquid handler. 30 μL/well of RPMI medium 1640-GlutaMAX™-I was added to the intermediate plate and the contents of the intermediate plate (10 μL/well) were then transferred to the 384-well collagen coated cell culture plate, which was incubated at 37° C., 5% CO2 for 2 hours. After removal of medium from the collagen coated cell culture plate, cells were lysed in lysis buffer from Alpha SureFire® Ultra™ Multiplex p-ERK and total ERK assay kit (PerkinElmer MPSU-PTERK) containing Halt™ Protease and Phosphatase inhibitor cocktail (ThermoFisher Scientific 78446) at room temperature with constant shaking at 300 rpm for 30 minutes. The cell lysates were then transferred to an OptiPlate-384 plate (PerkinElmer 6005620), and the phosphorylation of ERK (p-ERK) and total ERK levels were detected by Alpha SureFire® Ultra™ Multiplex p-EEK kit and total ERK assay kit (PerkinElmer MPSU-PTERK) following the manufacturer's protocol. Assay plates were read on a EnVision Multimode Plate Reader (PerkinElmer), and the ratio of p-ERK vs. total ERK in each well was used as the final readout. Dose response curves were analyzed using a 4-parameter logistic model to calculate IC50 values using Spotfire software.

KRAS G13D = KRAS G13D (Homo sapiens, UniProt P01116, G13D); experiment: SOS-catalyzed nucleotide exchange assay, KRAS G13D (Procedure A); type: biochemical; conditions: GNE
Method in brief: as §1

HRAS = HRAS (Homo sapiens, UniProt P01112); experiment: SOS-catalyzed nucleotide exchange assay, HRAS (Procedure A); type: biochemical; conditions: GNE
Method in brief: as §1

Chain of KRAS G13D (P01116 with tags, fused parts or gaps isoform P01116-2 G13D): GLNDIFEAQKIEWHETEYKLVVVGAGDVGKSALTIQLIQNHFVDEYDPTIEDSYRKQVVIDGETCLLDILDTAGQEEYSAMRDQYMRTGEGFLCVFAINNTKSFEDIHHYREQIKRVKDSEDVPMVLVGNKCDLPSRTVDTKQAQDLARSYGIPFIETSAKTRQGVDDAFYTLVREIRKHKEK
Chain of KRAS G12C (P01116 with tags, fused parts or gaps isoform P01116-2 G12C/C51S/C80L/C118S): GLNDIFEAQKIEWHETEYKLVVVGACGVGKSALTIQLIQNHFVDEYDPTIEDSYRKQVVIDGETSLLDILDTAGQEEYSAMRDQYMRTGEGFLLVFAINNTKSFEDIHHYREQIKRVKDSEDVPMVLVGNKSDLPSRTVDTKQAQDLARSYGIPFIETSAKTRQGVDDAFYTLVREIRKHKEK
T2 sequence (P01116 1-188 isoform P01116-2 G12D): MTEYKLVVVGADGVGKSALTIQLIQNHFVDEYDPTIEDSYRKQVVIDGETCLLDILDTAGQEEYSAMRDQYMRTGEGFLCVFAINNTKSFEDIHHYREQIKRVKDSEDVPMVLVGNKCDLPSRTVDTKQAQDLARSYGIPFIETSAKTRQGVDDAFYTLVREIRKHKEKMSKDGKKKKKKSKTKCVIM
T1 sequence (P01116 1-188 isoform P01116-2 G12D): as above
Chain of KRAS WT (P01116 with tags, fused parts or gaps isoform P01116-2): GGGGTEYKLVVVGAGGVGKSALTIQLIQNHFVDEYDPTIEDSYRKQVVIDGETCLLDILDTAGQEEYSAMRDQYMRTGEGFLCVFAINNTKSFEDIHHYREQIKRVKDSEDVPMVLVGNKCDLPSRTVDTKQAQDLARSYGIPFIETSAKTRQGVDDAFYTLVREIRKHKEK
Chain of NRAS (P01111 with tags, fused parts or gaps): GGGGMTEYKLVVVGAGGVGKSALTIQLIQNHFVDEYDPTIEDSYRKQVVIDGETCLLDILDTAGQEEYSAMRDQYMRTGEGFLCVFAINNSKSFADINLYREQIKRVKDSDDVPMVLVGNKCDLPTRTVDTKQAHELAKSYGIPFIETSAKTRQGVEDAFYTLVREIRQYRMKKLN
Chain of KRAS G12D (P01116 with tags, fused parts or gaps isoform P01116-2 G12D): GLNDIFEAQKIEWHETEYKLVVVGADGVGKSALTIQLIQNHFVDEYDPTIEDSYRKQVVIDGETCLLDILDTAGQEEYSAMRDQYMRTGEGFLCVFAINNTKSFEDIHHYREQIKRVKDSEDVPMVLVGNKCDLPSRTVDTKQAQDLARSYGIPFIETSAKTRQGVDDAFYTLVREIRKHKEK
Chain of KRAS G12V (P01116 with tags, fused parts or gaps isoform P01116-2 G12V): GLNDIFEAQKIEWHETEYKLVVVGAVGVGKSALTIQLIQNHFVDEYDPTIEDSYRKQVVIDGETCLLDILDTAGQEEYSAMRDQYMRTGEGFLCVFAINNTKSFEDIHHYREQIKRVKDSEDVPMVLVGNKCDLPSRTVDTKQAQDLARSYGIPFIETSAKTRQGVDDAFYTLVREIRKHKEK
Chain of HRAS (P01112 with tags, fused parts or gaps): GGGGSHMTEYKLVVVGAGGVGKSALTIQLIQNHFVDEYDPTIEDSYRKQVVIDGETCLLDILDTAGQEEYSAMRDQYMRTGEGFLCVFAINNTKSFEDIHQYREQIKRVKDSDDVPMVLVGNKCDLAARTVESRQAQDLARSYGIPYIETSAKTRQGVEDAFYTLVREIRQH

Compound	IC50 (KRAS G12D) [nM]	IC50 (KRAS WT) [nM]	IC50 (KRAS G12V) [nM]	IC50 (KRAS G12C) [nM]	IC50 (AsPC-1 cells) [nM]	IC50 (NRAS) [nM]	IC50 (PANC08.13 cells) [nM]	IC50 (KRAS G13D) [nM]	IC50 (HRAS) [nM]
C#Cc1cccc2cccc(-c3nccc4c3sc3nc(OC[C@@]56CCCN5C[C@H](F)C6)nc(N5C[C@H]6CC[C@@H](C5)N6)c34)c12 [Ex-10, 4-((1R,5S)-3,8-diaza-bicyclo[3.2.1]oc-tan-3-yl)-8-(8-ethynylnaphthalen-1-yl)-2-(((2R,7aS)-2-fluoro-tetrahydro-1H-pyrrolizin-7a(5H)-yl)methoxy)pyri-do[4′,3′:4,5]thi-eno[2,3-d]py-rimidine]	7.11	4930	6880	647	398	> 11100	192	604	> 11100
Cc1cc2[nH]ncc2c(-c2nccc3c2sc2nc(OC[C@@]45CCCN4C[C@H](F)C5)nc(N4C[C@H]5CC[C@@H](C4)N5)c23)c1C(F)(F)F [Ex-12, 4-((1R,5S)-3,8-diazabicyclo[3.2.1]octan-3-yl)-2-(((2R,7aS)-2-fluorotetrahydro-1H-pyrrolizin-7a(5H)-yl)methoxy)-8-(6-methyl-5-(trifluoromethyl)-1H-indazol-4-yl)pyrido[4′,3′:4,5]thieno[2,3-d]pyrimidine]	6.41	5810	2070	589	200	> 11100	88.9	723	> 11100
FC(F)c1c(Cl)cc2[nH]ncc2c1-c1nccc2c1sc1nc(OC[C@@]34CCCN3C[C@H](F)C4)nc(N3C[C@H]4CC[C@@H](C3)N4)c12 [Ex-13, 4-((1R,5S)-3,8-diazabicyclo[3.2.1]octan-3-yl)-8-(6-chloro-5-(difluoromethyl)-1H-indazol-4-yl)-2-(((2R,7aS)-2-fluorotetrahydro-1H-pyrrolizin-7a(5H)-yl)methoxy)pyrido[4′,3′:4,5]thieno [2,3-d]pyrimidine]	13.7	9560	8350	665	582	> 11100	220	1830	> 11100
Cc1cc2[nH]nc(C#N)c2c(-c2nccc3c2sc2nc(OC[C@@]45CCCN4C[C@H](F)C5)nc(N4C[C@H]5CC[C@@H](C4)N5)c23)c1C(F)(F)F [Ex-19, 4-(4-((1R,5S)-3,8-diazabicy-clo[3.2.1]oc-tan-3-yl)-2-(((2R,7aS)-2-fluoro-tetrahydro-1H-pyrrolizin-7a(5H)-yl)methoxy)pyri-do[4′,3′:4,5]thieno [2,3-d]pyrimidin-- 8-yl)-6-methyl-5-(trifluoromethyl)-- 1H-indazole-3-carbonitrile]	23.4	9940	> 11100	755	2200	> 11100	250	1050	> 11100

The remaining lines, values ahead:

IC50 (KRAS G12D) [nM]	IC50 (KRAS WT) [nM]	IC50 (KRAS G12V) [nM]	IC50 (KRAS G12C) [nM]	IC50 (AsPC-1 cells) [nM]	IC50 (NRAS) [nM]	IC50 (PANC08.13 cells) [nM]	IC50 (KRAS G13D) [nM]	IC50 (HRAS) [nM]	Compound
43.6	> 11100	> 11100	> 11100	15100	> 11100	1630	2360	> 11100	Cc1cc2[nH]nc(C#N)c2c(-c2nccc3c4c(N5C[C@H]6CC[C@@H](C5)N6)nc(OC[C@@]56CCCN5C[C@H](F)C6)nc4n(C)c23)c1C(F)(F)F (single isomer, unassigned) [Ex-2]
97.5	9310	5140	919	965	> 11100	244	3320	> 11100	Cc1cc2[nH]ncc2c(-c2nccc3c4c(N5C[C@H]6CC[C@@H](C5)N6)nc(OC[C@@]56CCCN5C[C@H](F)C6)nc4n(C)c23)c1C(F)F (single isomer, unassigned) [Ex-3]
1.81	48.1	62.6	25.2	138	> 11100	63.8	17.8	> 11100	C#Cc1c(F)ccc2cc(O)cc(-c3nccc4c5c(N6C[C@H]7CC[C@@H](C6)N7)nc(OC[C@@]67CCCN6C[C@H](F)C7)nc5n(C)c34)c12 [Ex-8, 4-(4-((1R,5S)-3,8-diazabicyclo[3.2.1]octan-3-yl)-2-(((2R,7aS)-2-fluorotetrahydro-1H-pyrrolizin-7a(5H)-yl)methoxy)-9-methyl-9H-pyrido[4′,3′:4,5]pyrrolo[2,3-d]pyrimidin-8-yl)-5-ethynyl-6-fluoronaphthalen-2-ol]

— US20260347372A1, “SMALL MOLECULE INHIBITORS OF KRAS G12D MUTANT” (MERCK SHARP & DOHME LLC, priority 2023, published 2026)
